Measured values from patent US20250235543A1, “MODIFIED PROTEINS AND PROTEIN DEGRADERS” (Cullgen (Shanghai), Inc., priority 2021, published 2025).
Like-named read-outs stand apart in the source and are kept apart here.

Experiments:
CDK4 = molecular target: T1, CDK4 (Homo sapiens, UniProt P11802); assay: CDK4 percentage degradation in Calu-1 cells (immunoblotting); format: cell-based; details: read-out: CDK4 Degradation (200 nM)
T1 construct: endogenous in cells; host or cells: Calu-1
Outline: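 CDK4 degradation was measured by immunoblotting. Cells were washed in cold PBS and lysed in RIPA buffer with inhibitors for 30 min at 4° C., then spun at 13,000 rpm to clear. After BCA protein determination, lysates were heated at 99° C. for 5 min in Laemmli buffer, resolved on SDS-PAGE, imaged on a ChemiDoc MP with ECL substrate, and band intensities quantified.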

cyclin D1 = assay: Cyclin D1 percentage degradation in Calu-1 cells (immunoblotting); format: cell-based; details: 200 nM, 16 hours
Outline: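 Cyclin D1 degradation was assessed by western blot. Clarified lysates, obtained by RIPA lysis with inhibitors and centrifugation at 13,000 rpm, were normalized by BCA protein assay and separated by SDS-PAGE. Bands were detected with Western ECL Substrate on a Bio-Rad ChemiDoc MP Imaging system and quantified in Image Lab software to derive percentage degradation.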

T1 sequence (P11802 2-303 limits assumed): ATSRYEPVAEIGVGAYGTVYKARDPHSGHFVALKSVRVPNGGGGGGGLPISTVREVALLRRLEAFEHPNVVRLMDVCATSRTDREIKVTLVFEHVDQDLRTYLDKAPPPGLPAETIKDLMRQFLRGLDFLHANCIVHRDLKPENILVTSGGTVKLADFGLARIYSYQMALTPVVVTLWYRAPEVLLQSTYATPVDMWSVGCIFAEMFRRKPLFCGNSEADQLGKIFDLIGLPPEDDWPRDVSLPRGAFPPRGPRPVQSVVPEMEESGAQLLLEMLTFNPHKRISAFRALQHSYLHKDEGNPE
T1 sequence (P24385 whole entry partner): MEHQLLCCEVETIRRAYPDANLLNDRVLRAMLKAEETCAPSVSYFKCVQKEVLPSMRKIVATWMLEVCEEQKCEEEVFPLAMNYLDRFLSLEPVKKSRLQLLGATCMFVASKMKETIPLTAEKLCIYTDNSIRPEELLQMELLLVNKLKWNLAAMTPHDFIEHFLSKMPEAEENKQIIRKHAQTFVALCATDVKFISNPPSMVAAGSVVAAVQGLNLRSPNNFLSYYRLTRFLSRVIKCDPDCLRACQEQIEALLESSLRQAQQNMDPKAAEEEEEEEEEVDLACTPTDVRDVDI
T1 sequence (Q16531 2-1140 limits assumed, further chain): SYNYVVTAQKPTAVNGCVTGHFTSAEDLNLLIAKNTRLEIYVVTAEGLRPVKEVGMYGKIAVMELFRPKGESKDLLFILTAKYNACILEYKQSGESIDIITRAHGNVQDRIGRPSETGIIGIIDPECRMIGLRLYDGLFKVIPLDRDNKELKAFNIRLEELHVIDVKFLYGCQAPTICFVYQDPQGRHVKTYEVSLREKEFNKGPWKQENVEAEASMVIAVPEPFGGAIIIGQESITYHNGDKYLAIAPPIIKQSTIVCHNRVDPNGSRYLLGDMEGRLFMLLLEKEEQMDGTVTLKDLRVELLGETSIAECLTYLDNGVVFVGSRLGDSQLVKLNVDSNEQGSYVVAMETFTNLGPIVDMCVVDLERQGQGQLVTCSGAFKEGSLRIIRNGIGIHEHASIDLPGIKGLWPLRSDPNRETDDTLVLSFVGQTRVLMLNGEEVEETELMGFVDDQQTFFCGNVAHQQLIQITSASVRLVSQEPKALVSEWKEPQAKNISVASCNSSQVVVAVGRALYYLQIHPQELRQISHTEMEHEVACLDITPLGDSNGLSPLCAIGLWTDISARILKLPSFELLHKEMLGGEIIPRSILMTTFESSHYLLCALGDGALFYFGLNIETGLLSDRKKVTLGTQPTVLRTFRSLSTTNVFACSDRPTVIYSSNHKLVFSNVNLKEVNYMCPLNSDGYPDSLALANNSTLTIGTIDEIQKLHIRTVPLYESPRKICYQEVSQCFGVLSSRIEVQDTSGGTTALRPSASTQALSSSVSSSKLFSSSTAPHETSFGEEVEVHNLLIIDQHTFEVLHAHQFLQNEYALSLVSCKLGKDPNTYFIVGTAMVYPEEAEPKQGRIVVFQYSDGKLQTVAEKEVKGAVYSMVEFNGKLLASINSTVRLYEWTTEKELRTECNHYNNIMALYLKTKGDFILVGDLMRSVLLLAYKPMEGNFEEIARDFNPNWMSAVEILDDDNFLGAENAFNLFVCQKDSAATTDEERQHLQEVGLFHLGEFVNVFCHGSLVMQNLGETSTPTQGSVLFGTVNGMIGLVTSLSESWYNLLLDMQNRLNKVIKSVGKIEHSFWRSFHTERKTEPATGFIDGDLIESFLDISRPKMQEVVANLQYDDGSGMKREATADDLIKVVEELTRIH

SMILES	inhibition at 0.2 µM (CDK4; Calu-1 cells, 200 nM, 16 hours) [%]	inhibition at 0.2 µM (CDK4; Calu-1, 16 h) [%]	CyclinD1 Degradation (200 nM) (cyclin D1)
CC(=O)c1c(C)c2cnc(Nc3ccc(N4CCN(C(=O)CCCCCCCC(=O)Nc5ccccc5C(=O)Nc5nc(C)c(C)s5)CC4)cn3)nc2n(C2CCCC2)c1=O [CPD-160, 2-(9-(4-(6-((6-Acetyl-8-cyclopentyl-5-methyl-7-oxo-7,8-dihydropyrido[2,3-d]pyrimidin-2-yl)amino)pyridin-3-yl)piperazin-1-yl)-9-oxononanamido)-N-(4,5-dimethylthiazol-2-yl)benzamide]	–	50 to 80	C (protein percentage degradation <50%, and >=30%)
CC(=O)c1c(C)c2cnc(Nc3ccc(N4CCN(CC(=O)NCCCCCNc5cc(Cl)ccc5C(=O)Nc5ccc(N(C)C)nn5)CC4)cn3)nc2n(C2CCCC2)c1=O [CPD-374, 2-((5-(2-(4-(6-((6-Acetyl-8-cyclopentyl-5-methyl-7-oxo-7,8-dihydropyrido[2,3-d]pyrimidin-2-yl)amino)pyridin-3-yl)piperazin-1-yl)acetamido)pentyl)amino)-4-chloro-N-(6-(dimethylamino)pyridazin-3-yl)benzamide]	50 to 80	–	A (protein percentage degradation >=80%)
CC(=O)c1c(C)c2cnc(Nc3ccc(N4CCN(C(=O)CCOCCNc5cccc(C(=O)Nc6nc(C)c(C)s6)c5C)CC4)cn3)nc2n(C2CCCC2)c1=O [CPD-120, 3-((2-(3-(4-(6-((6-Acetyl-8-cyclopentyl-5-methyl-7-oxo-7,8-dihydropyrido[2,3-d]pyrimidin-2-yl)amino)pyridin-3-yl)piperazin-1-yl)-3-oxopropoxy)ethyl)amino)-N-(4,5-dimethylthiazol-2-yl)-2-methylbenzamide]	–	< 30	D (protein percentage degradation <30%)
CC(=O)c1c(C)c2cnc(Nc3ccc(N4CCN(C(=O)CCOCCOCCOCCOCCOCCNc5ccc(C)c(C(=O)Nc6nc(C)c(C)s6)c5)CC4)cn3)nc2n(C2CCCC2)c1=O [CPD-134, 5-((18-(4-(6-((6-Acetyl-8-cyclopentyl-5-methyl-7-oxo-7,8-dihydropyrido[2,3-d]pyrimidin-2-yl)amino)pyridin-3-yl)piperazin-1-yl)-18-oxo-3,6,9,12,15-pentaoxaoctadecyl)amino)-N-(4,5-dimethylthiazol-2-yl)-2-methylbenzamide]	–	< 30	D (protein percentage degradation <30%)
CC(=O)c1c(C)c2cnc(Nc3ccc(N4CCN(C(=O)CCOCCOCCOCCOCCOCCNc5cccc(C(=O)Nc6nc(C)c(C)s6)c5C)CC4)cn3)nc2n(C2CCCC2)c1=O [CPD-126, 3-((18-(4-(6-((6-Acetyl-8-cyclopentyl-5-methyl-7-oxo-7,8-dihydropyrido[2,3-d]pyrimidin-2-yl)amino)pyridin-3-yl)piperazin-1-yl)-18-oxo-3,6,9,12,15-pentaoxaoctadecyl)amino)-N-(4,5-dimethylthiazol-2-yl)-2-methylbenzamide]	–	50 to 80	B (protein percentage degradation <80%, and >=50%)
CC(=O)c1c(C)c2cnc(Nc3ccc(N4CCN(CCCCCOCCOCCNc5cccc(C(=O)Nc6nc(C)c(C)s6)c5C)CC4)cn3)nc2n(C2CCCC2)c1=O [CPD-271, 3-((2-(2-((5-(4-(6-((6-Acetyl-8-cyclopentyl-5-methyl-7-oxo-7,8-dihydropyrido[2,3-d]pyrimidin-2-yl)amino)pyridin-3-yl)piperazin-1-yl)pentyl)oxy)ethoxy)ethyl)amino)-N-(4,5-dimethylthiazol-2-yl)-2-methylbenzamide]	–	< 30	D (protein percentage degradation <30%)
CC(=O)c1c(C)c2cnc(Nc3ccc(N4CCN(CCOCCOCCOCCC(=O)Nc5ccccc5C(=O)Nc5nc(C)c(C)s5)CC4)cn3)nc2n(C2CCCC2)c1=O [CPD-178, 2-(3-(2-(2-(2-(4-(6-((6-Acetyl-8-cyclopentyl-5-methyl-7-oxo-7,8-dihydropyrido[2,3-d]pyrimidin-2-yl)amino)pyridin-3-yl)piperazin-1-yl)ethoxy)ethoxy)ethoxy)propanamido)-N-(4,5-dimethylthiazol-2-yl)benzamide]	–	< 30	D (protein percentage degradation <30%)
CC(=O)c1c(C)c2cnc(Nc3ccc(N4CCN(C(=O)CCCCCCC(=O)Nc5ccccc5C(=O)Nc5nc(C)c(C)s5)CC4)cn3)nc2n(C2CCCC2)c1=O [CPD-161, 2-(8-(4-(6-((6-Acetyl-8-cyclopentyl-5-methyl-7-oxo-7,8-dihydropyrido[2,3-d]pyrimidin-2-yl)amino)pyridin-3-yl)piperazin-1-yl)-8-oxooctanamido)-N-(4,5-dimethylthiazol-2-yl)benzamide]	–	< 30	D (protein percentage degradation <30%)
CC(=O)c1c(C)c2cnc(Nc3ccc(N4CCN(CC(=O)NCCCCCNC(=O)COc5ccc(C(=O)Nc6ncc(C)s6)c(C)c5)CC4)cn3)nc2n(C2CCCC2)c1=O [CPD-036, 4-(2-((5-(2-(4-(6-((6-Acetyl-8-cyclopentyl-5-methyl-7-oxo-7,8-dihydropyrido[2,3-d]pyrimidin-2-yl)amino)pyridin-3-yl)piperazin-1-yl)acetamido)pentyl)amino)-2-oxoethoxy)-2-methyl-N-(5-methylthiazol-2-yl)benzamide]	< 30	–	D (protein percentage degradation <30%)
CC(=O)c1c(C)c2cnc(Nc3ccc(N4CCN(C(=O)CCCCCC(=O)Nc5ccccc5C(=O)Nc5nc(C)c(C)s5)CC4)cn3)nc2n(C2CCCC2)c1=O [CPD-157, 2-(7-(4-(6-((6-Acetyl-8-cyclopentyl-5-methyl-7-oxo-7,8-dihydropyrido[2,3-d]pyrimidin-2-yl)amino)pyridin-3-yl)piperazin-1-yl)-7-oxoheptanamido)-N-(4,5-dimethylthiazol-2-yl)benzamide]	–	< 30	D (protein percentage degradation <30%)
CC(=O)c1c(C)c2cnc(Nc3ccc(N4CCN(CC(=O)NCCOCCOCCC(=O)Nc5ccccc5C(=O)Nc5nc(C6CC6)c(C)s5)CC4)cn3)nc2n(C2CCCC2)c1=O [CPD-057, 2-(3-(2-(2-(2-(4-(6-((6-Acetyl-8-cyclopentyl-5-methyl-7-oxo-7,8-dihydropyrido[2,3-d]pyrimidin-2-yl)amino)pyridin-3-yl)piperazin-1-yl)acetamido)ethoxy)ethoxy)propanamido)-N-(4-cyclopropyl-5-methylthiazol-2-yl)benzamide]	50 to 80	–	A (protein percentage degradation >=80%)

Now from value to molecule, other results behind:

inhibition at 0.2 µM (CDK4; Calu-1 cells, 200 nM, 16 hours) [%]	SMILES	inhibition at 0.2 µM (CDK4; Calu-1, 16 h) [%]	CyclinD1 Degradation (200 nM) (cyclin D1)
50 to 80	COc1ccc(NC(=O)c2ccccc2NC(=O)CCN2CCN(CCNC(=O)CN3CCN(c4ccc(Nc5ncc6c(C)c(C(C)=O)c(=O)n(C7CCCC7)c6n5)nc4)CC3)CC2)nn1 [CPD-345, 2-(3-(4-(2-(2-(4-(6-((6-Acetyl-8-cyclopentyl-5-methyl-7-oxo-7,8-dihydropyrido[2,3-d]pyrimidin-2-yl)amino)pyridin-3-yl)piperazin-1-yl)acetamido)ethyl)piperazin-1-yl)propanamido)-N-(6-methoxypyridazin-3-yl)benzamide]	–	A (protein percentage degradation >=80%)
< 30	CC(=O)c1c(C)c2cnc(Nc3ccc(N4CCN(CC(=O)NCCOCCOCCC(=O)Nc5ccccc5C(=O)Nc5cn(C)cn5)CC4)cn3)nc2n(C2CCCC2)c1=O [CPD-063, 2-(3-(2-(2-(2-(4-(6-((6-Acetyl-8-cyclopentyl-5-methyl-7-oxo-7,8-dihydropyrido[2,3-d]pyrimidin-2-yl)amino)pyridin-3-yl)piperazin-1-yl)acetamido)ethoxy)ethoxy)propanamido)-N-(1-methyl-1H-imidazol-4-yl)benzamide]	–	D (protein percentage degradation <30%)
50 to 80	CC(=O)c1c(C)c2cnc(Nc3ccc(N4CCN(CC(=O)NCCCCCCCCNc5cccc(C(=O)Nc6nc(C)c(C)s6)c5C)CC4)cn3)nc2n(C2CCCC2)c1=O [CPD-090, 3-((8-(2-(4-(6-((6-Acetyl-8-cyclopentyl-5-methyl-7-oxo-7,8-dihydropyrido[2,3-d]pyrimidin-2-yl)amino)pyridin-3-yl)piperazin-1-yl)acetamido)octyl)amino)-N-(4,5-dimethylthiazol-2-yl)-2-methylbenzamide]	–	A (protein percentage degradation >=80%)
> 80	CC(=O)c1c(C)c2cnc(Nc3ccc(N4CCN(CC(=O)NCCOCCOCCOCCOCCOCCNc5ccc(C(=O)Nc6cc(C)n(C)n6)c(C)c5)CC4)cn3)nc2n(C2CCCC2)c1=O [CPD-050, 4-((1-(4-(6-((6-Acetyl-8-cyclopentyl-5-methyl-7-oxo-7,8-dihydropyrido[2,3-d]pyrimidin-2-yl)amino)pyridin-3-yl)piperazin-1-yl)-2-oxo-6,9,12,15,18-pentaoxa-3-azaicosan-20-yl)amino)-N-(1,5-dimethyl-1H-pyrazol-3-yl)-2-methylbenzamide]	–	A (protein percentage degradation >=80%)
30 to 50	CC(=O)c1c(C)c2cnc(Nc3ccc(N4CCN(CC(=O)NCCCCCCCNc5ccc(C)c(C(=O)Nc6nc(C)c(C)s6)c5)CC4)cn3)nc2n(C2CCCC2)c1=O [CPD-117, 5-((7-(2-(4-(6-((6-Acetyl-8-cyclopentyl-5-methyl-7-oxo-7,8-dihydropyrido[2,3-d]pyrimidin-2-yl)amino)pyridin-3-yl)piperazin-1-yl)acetamido)heptyl)amino)-N-(4,5-dimethylthiazol-2-yl)-2-methylbenzamide]	–	C (protein percentage degradation <50%, and >=30%)
